Structures are written as SMILES. Read-outs that look alike come from different tables or passages of the source. Where only a bound is given, the exact number is not on record here.

For one experiment, the target named is T1, OX1 (Homo sapiens, UniProt O43613).
T1 sequence (O43613 1-425): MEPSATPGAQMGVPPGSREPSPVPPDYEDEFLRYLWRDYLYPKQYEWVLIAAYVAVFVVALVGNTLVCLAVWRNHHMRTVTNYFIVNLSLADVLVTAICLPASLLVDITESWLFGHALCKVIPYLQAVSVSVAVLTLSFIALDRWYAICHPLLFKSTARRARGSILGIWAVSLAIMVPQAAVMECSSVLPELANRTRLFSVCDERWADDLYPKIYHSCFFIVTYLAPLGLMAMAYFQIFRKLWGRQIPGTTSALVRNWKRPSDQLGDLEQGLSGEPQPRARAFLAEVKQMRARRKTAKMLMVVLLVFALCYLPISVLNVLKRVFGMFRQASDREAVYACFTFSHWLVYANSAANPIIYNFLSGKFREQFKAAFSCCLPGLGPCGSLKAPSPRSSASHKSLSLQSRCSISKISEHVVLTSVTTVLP
In words: Measurement of orexin receptor-binding ability ([125I]-OX-A, cell membranes, OX1). The arrangement: expressed in transfected cells; host or cells: CHO cells (membrane preparation).

For the next experiment, the target named is T2, OX2 (Homo sapiens, UniProt O43614).
T2 sequence (O43614 1-444): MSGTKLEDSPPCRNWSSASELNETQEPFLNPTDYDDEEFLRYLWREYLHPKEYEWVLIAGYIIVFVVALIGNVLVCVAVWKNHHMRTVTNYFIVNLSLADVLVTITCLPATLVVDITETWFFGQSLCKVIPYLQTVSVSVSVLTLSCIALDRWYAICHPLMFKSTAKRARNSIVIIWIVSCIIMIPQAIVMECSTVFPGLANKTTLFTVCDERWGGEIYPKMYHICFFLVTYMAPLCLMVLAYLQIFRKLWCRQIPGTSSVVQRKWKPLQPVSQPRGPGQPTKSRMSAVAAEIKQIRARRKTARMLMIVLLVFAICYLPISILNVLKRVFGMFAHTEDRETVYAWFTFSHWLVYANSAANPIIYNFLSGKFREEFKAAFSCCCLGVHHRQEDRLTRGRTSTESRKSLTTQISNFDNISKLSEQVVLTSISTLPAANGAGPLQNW
In words: Measurement of orexin receptor-binding ability ([125I]-OX-A, cell membranes, OX2). Also noted: expressed in transfected cells; host or cells: CHO cells (membrane preparation). Particulars: membranes of recombinant CHO cells expressing OX2, 0.2 nM [125I]-OX-A.

The mark [1] stands for this setting: membranes of recombinant CHO cells expressing OX1, 0.2 nM [125I]-OX-A, read-out: OX1 (IC50).

Take `Cc1ncc(OC[C@@]2(c3cccc(F)c3)C[C@H]2C(=O)Nc2ccc(F)cn2)c(CO)n1` [Example 286, (1R,2S)-2-(3-fluorophenyl)-N-(5-fluoropyridin-2-yl)-2-{[(4-hydroxymethyl-2-methylpyrimidin-5-yl)oxy]methyl}-2-(3-fluorophenyl)cyclopropanecarboxamide]: the IC50 was more than 200 nM on OX1 and 4.5 nM on OX2 (OX2 (IC50) nM).

For the compound `O=C(Nc1ccc(F)cn1)[C@@H]1C[C@@]1(COc1c[nH]c(=O)nc1C(F)(F)F)c1cc(F)cc(F)c1` [Example 291, (1R,2S)-2-(3,5-difluorophenyl)-N-(5-fluoropyridin-2-yl)-2-{[(2-oxo-4-trifluoromethyl-1,2-dihydropyrimidin-5-yl)oxy]methyl}cyclopropanecarboxamide], the concentration for half-maximal inhibition (IC50) at OX1 (setting [1]) is more than 200 nM; at OX2 (read-out: OX2 (IC50)), 49 nM.

Turning to `Cc1ncc(CC[C@@]2(c3ccccc3)C[C@H]2C(=O)Nc2cc(C)c(F)cn2)c(C)n1` [Example 292, (1R,2R)-2-[2-(2,4-dimethylpyrimidin-5-yl)ethyl]-N-(5-fluoro-4-methylpyridin-2-yl)-2-phenylcyclopropanecarboxamide], the half-inhibitory concentration (IC50) on OX1 (setting [1]) is 240 nM; at OX2 (read-out: OX2 (IC50)), 34 nM.

For `Cc1ncc(N(C)C[C@@]2(c3cccc(F)c3)C[C@H]2C(=O)Nc2cc(C)c(F)cn2)c(C)n1` [Example 293], the IC50 at OX1 (setting [1]) worked out at 79 nM; on OX2 (read-out: OX2 (IC50)) it was 9 nM.

For `Cc1ncc(N(C)C[C@@]2(c3cccc(F)c3)C[C@H]2C(=O)Nc2ccc(F)cc2)c(C)n1` [Example 294], the IC50 at OX1 (setting [1]) is more than 200 nM; on OX2 (read-out: OX2 (IC50)), 14 nM.

With `Cc1ncc(N(C)C[C@@]2(c3cccc(F)c3)C[C@H]2C(=O)Nc2cc(C)c(Cl)cn2)c(C)n1` [Example 295, (1R,2S)-N-(5-chloro-4-methylpyridin-2-yl)-2-[N-(2,4-dimethylpyrimidin-5-yl)methylaminomethyl]-2-(3-fluorophenyl)cyclopropanecarboxamide], the figures for the half-maximal inhibitory concentration (IC50) at OX1 (setting [1]) and at OX2 (read-out: OX2 (IC50)) were 5 nM and 6 nM, respectively.

On to `Cc1ncc(N(C)C[C@@]2(c3cccc(F)c3)C[C@H]2C(=O)Nc2ccc(F)c(F)c2)c(C)n1` [Example 296], for which the IC50 at OX1 (setting [1]) was more than 200 nM; on OX2 (read-out: OX2 (IC50)), 8 nM.

Take `Cc1ncc(N(C)C[C@@]2(c3ccccc3)C[C@H]2C(=O)Nc2cc(C)c(F)cn2)c(C)n1` [Example 299]: the values for the IC50 on OX1 (setting [1]) and at OX2 (read-out: OX2 (IC50)) were 304 nM and 46 nM, respectively.

Consider `Cc1ncc(N(C)C[C@@]2(c3ccccc3)C[C@H]2C(=O)Nc2ccc(F)cc2)c(C)n1` [Example 300], for which the 50% inhibitory concentration (IC50) on OX1 (setting [1]) worked out at 495 nM; on OX2 (read-out: OX2 (IC50)), 34 nM.

As for `Cc1ncc(N(C)C[C@@]2(c3ccccc3)C[C@H]2C(=O)Nc2cc(C)c(Cl)cn2)c(C)n1` [Example 301], the IC50 was found to be 175 nM at OX1 (setting [1]) and 28 nM on OX2 (read-out: OX2 (IC50)).

`Cc1ncc(NC[C@@]2(c3cccc(F)c3)C[C@H]2C(=O)Nc2ccc(F)cn2)c(C(F)(F)F)n1` [Example 302, (1R,2S)-2-(3-fluorophenyl)-N-(5-fluoropyridin-2-yl)-2-[N-(2-methyl-4-trifluoromethylpyrimidin-5-yl)aminomethyl]cyclopropanecarboxamide]: the IC50 was 8 nM at OX1 (setting [1]) and 3 nM at OX2 (read-out: OX2 (IC50)).

With `Cc1ncc(OC[C@@]2(c3ccccc3)C[C@H]2c2nc3cc(F)ccc3[nH]2)c(C)n1` [Example 303, 2-{(1R,2S)-2-{[(2,4-dimethylpyrimidin-5-yl)oxy]methyl}-2-phenylcyclopropyl}-5-fluoro-1H-benzimidazole], the IC50 came to 75 nM on OX1 (setting [1]) and 3 nM on OX2 (read-out: OX2 (IC50)).

Take `Cc1ncc(OC[C@@]2(c3cc(F)cc(F)c3)C[C@H]2c2nc3ncc(F)cc3[nH]2)c(C)n1` [Example 306, 2-{(1R,2S)-2-(3,5-difluorophenyl)-2-{[(2,4-dimethylpyrimidin-5-yl)oxy]methyl}cyclopropyl}-6-fluoro-1H-imidazo[4,5-b]pyridine]: the figures for the concentration for half-maximal inhibition (IC50) at OX1 (setting [1]) and at OX2 (read-out: OX2 (IC50)) were 15 nM and 8 nM, respectively.

Regarding `Cc1ncc(OC[C@@]2(c3cccc(F)c3)C[C@H]2c2nc3ccccc3c(=O)[nH]2)c(C)n1` [Example 310], the half-inhibitory concentration (IC50) at OX1 (setting [1]) worked out at 40 nM; at OX2 (read-out: OX2 (IC50)), 13 nM.

With `Cc1ncc(OC[C@@]2(c3cccc(F)c3)C[C@H]2c2nc3ccc(Cl)cc3c(=O)[nH]2)c(C)n1` [Example 311], the 50% inhibitory concentration (IC50) on OX1 (setting [1]) is 23 nM; on OX2 (read-out: OX2 (IC50)), 3.1 nM.

Regarding `Cc1ncc(OC[C@@]2(c3cccc(F)c3)C[C@H]2c2nc3ncccc3c(=O)[nH]2)c(C)n1` [Example 312], the half-maximal inhibitory concentration (IC50) on OX1 (setting [1]) was 136 nM; on OX2 (read-out: OX2 (IC50)), 62 nM.

For `CCc1ncc(OC[C@@]2(c3ccccc3)C[C@H]2C(=O)Nc2ccc(F)cn2)c(C)n1` [Example 313], the IC50 on OX1 was 224 nM; at OX2 (OX2 (IC50) nM), 107 nM.

For the compound `CCc1nc(C)ncc1OC[C@@]1(c2cccc(F)c2)C[C@H]1C(=O)Nc1ccc(F)cc1` [Example 316, (1R,2S)-2-{[(4-ethyl-2-methylpyrimidin-5-yl)oxy]methyl}-2-(3-fluorophenyl)-N-(4-fluorophenyl)cyclopropanecarboxamide], the figures for the IC50 at OX1 (setting [1]) and on OX2 (read-out: OX2 (IC50)) were 7 nM and 1.1 nM, respectively.

With `CCc1nc(C)ncc1OC[C@@]1(c2ccccc2)C[C@H]1C(=O)Nc1cncc(OC)c1` [Example 317], the IC50 at OX1 (setting [1]) turned out to be 451 nM; at OX2 (read-out: OX2 (IC50)), 20 nM.

With `CCc1nc(C)ncc1OC[C@@]1(c2ccccc2)C[C@H]1C(=O)Nc1ccc(F)cc1` [Example 318], the half-maximal inhibitory concentration (IC50) at OX1 (setting [1]) was 135 nM; on OX2 (read-out: OX2 (IC50)), 11 nM.

As to `Cc1ncc(OC[C@@]2(c3cccc(F)c3)C[C@H]2C(=O)Nc2ncc(F)cc2O)c(C)n1` [Example 319, (1R,2S)-2-{{[(2,4-dimethylpyrimidin-5-yl)oxy]methyl}}-N-(5-fluoro-3-hydroxypyridin-2-yl)-2-(3-fluorophenyl)cyclopropanecarboxamide], the half-maximal inhibitory concentration (IC50) at OX1 was more than 200 nM; on OX2 (OX2 (IC50) nM) it was 128 nM.

With `Cc1ncc(OC[C@@]2(c3cccc(F)c3)C[C@H]2C(=O)Nc2ccc(F)cn2)c(CF)n1` [Example 320, (1R,2S)-2-{[(4-fluoromethyl-2-methylpyrimidin-5-yl)oxy]methyl}-2-(3-fluorophenyl)-N-(5-fluoropyridin-2-yl)cyclopropanecarboxamide], the IC50 was found to be 12.3 nM on OX1 and 2.3 nM at OX2 (OX2 (IC50) nM).

Turning to `Cc1ncc(OC[C@@]2(c3ccc(O)c(F)c3)C[C@H]2C(=O)Nc2ccc(F)cn2)c(C)n1` [Example 321, (1R,2S)-2-{[(2,4-dimethylpyrimidin-5-yl)oxy]methyl}-2-(3-fluoro-4-hydroxyphenyl)-N-(5-fluoropyridin-2-yl)cyclopropanecarboxamide], the IC50 on OX1 amounted to 20 nM; on OX2 (OX2 (IC50) nM), 7 nM.

Turning to `COc1ccc([C@]2(COc3cnc(C)nc3C)C[C@H]2C(=O)Nc2ccc(F)cn2)cc1F` [Example 322, (1R,2S)-2-{[(2,4-dimethylpyrimidin-5-yl)oxy]methyl}-2-(3-fluoro-4-methoxyphenyl)-N-(5-fluoropyridin-2-yl)cyclopropanecarboxamide], the IC50 at OX1 was determined as 30 nM; on OX2 (OX2 (IC50) nM) it was 7 nM.

Take `Cc1nc(CO)ncc1OC[C@@]1(c2cccc(F)c2)C[C@H]1C(=O)Nc1ccc(F)cn1` [Example 323, (1R,2S)-2-(3-fluorophenyl)-N-(5-fluoropyridin-2-yl)-2-{[(2-hydroxymethyl-4-methylpyrimidin-5-yl)oxy]methyl}cyclopropanecarboxamide]: the IC50 at OX1 was 32.6 nM; at OX2 (OX2 (IC50) nM) it was 2.6 nM.

`Cc1ncc(OC[C@@]2(c3cc(F)ccc3O)C[C@H]2C(=O)Nc2ccc(F)cn2)c(C)n1` [Example 324, (1R,2S)-2-{[(2,4-dimethylpyrimidin-5-yl)oxy]methyl}-2-(5-fluoro-2-hydroxyphenyl]-N-(5-fluoropyridin-2-yl)cyclopropanecarboxamide]: the figures for the half-maximal inhibitory concentration (IC50) on OX1 and on OX2 (OX2 (IC50) nM) were 113 nM and 5.9 nM, respectively.

`Cc1ncc(OC[C@@]2(c3cccc(F)c3)C[C@H]2C(=O)Nc2ccc(F)c(O)n2)c(C)n1` [Example 325, (1R,2S)-2-{[(2,4-dimethylpyrimidin-5-yl)oxy]methyl}-N-(5-fluoro-6-hydroxypyridin-2-yl)-2-(3-fluorophenyl)cyclopropanecarboxamide]: the figures for the IC50 at OX1 and on OX2 (OX2 (IC50) nM) were 158 nM and 20 nM, respectively.

For the compound `Cc1nc(C)c(OC[C@@]2(c3cccc(F)c3)C[C@H]2C(=O)Nc2ccc(F)cn2)c(=O)[nH]1` [Example 326, (1R,2S)-2-{[(2,4-dimethyl-6-oxo-1,6-dihydropyrimidin-5-yl)oxy]methyl}-2-(3-fluorophenyl)-N-(5-fluoropyridin-2-yl)cyclopropanecarboxamide], the IC50 at OX1 came out at 123 nM; on OX2 (OX2 (IC50) nM), 6 nM.

(Values after patent US8268848B2, “Cyclopropane compound” (Eisai R&D Management Co., Ltd., priority 2010, dated 2012).)
